Assay results: US10487092B2, “Pyrazolopyridinamines as MKNK1 and MKNK2 inhibitors” (BAYER PHARMA AKTIENGESELLSCHAFT, priority 2014, dated 2019)

Target: human full-length MKNK1 (Homo sapiens (Human), UniProt Q9BUB5, T344D)
Test: MKNK1 kinase high ATP assay (TR-FRET)
Assay type: biochemical
Details: high ATP (2 mM), 15 min preincubation with enzyme; read-out: MKNK1 IC50
Protocol: MKNK1 Kinase High ATP Assay
MKNK1-inhibitory activity at high ATP of compounds of the present invention after their preincubation with MKNK1 was quantified employing the TR-FRET-based MKNK1 high ATP assay as described in the following paragraphs.
A recombinant fusion protein of Glutathione-S-Transferase (GST, N-terminally) and human full-length MKNK1 (amino acids 1-424 and T344D of accession number BAA 19885.1), expressed in insect cells using baculovirus expression system and purified via glutathione sepharose affinity chromatography, was purchased from Carna Biosciences (product no 02-145) and used as enzyme. As substrate for the kinase reaction the biotinylated peptide biotin-Ahx-IKKRKLTRRKSLKG (SEQ ID NO: 1, C-terminus in amide form) was used, which can be purchased e.g. from the company Biosyntan (Berlin-Buch, Germany).
For the assay 50 nL of a 100 fold concentrated solution of the test compound in DMSO was pipetted into a black low volume 384 well microtiter plate (Greiner Bio-One, Frickenhausen, Germany), 2 μL of a solution of MKNK1 in aqueous assay buffer [50 mM HEPES pH 7.5, 5 mM MgCl2, 1.0 mM dithiothreitol, 0.005% (v/v) Nonidet-P40 (Sigma)] was added and the mixture was incubated for 15 min at 22° C. to allow pre-binding of the test compounds to the enzyme before the start of the kinase reaction. Then the kinase reaction was started by the addition of 3 μL of a solution of adenosine-tri-phosphate (ATP, 3.3 mM=>final conc. in the 5 μL assay volume is 2 mM) and substrate (0.1 μM=>final conc. in the 5 μL assay volume is 0.06 μM) in assay buffer and the resulting mixture was incubated for a reaction time of 30 min at 22° C. The concentration of MKNK1 was adjusted depending of the activity of the enzyme lot and was chosen appropriate to have the assay in the linear range, typical concentrations were in the range of 0.003 μg/mL. The reaction was stopped by the addition of 5 μL of a solution of TR-FRET detection reagents (5 nM streptavidine-XL665 [Cisbio Bioassays, Codolet, France] and 1 nM anti-ribosomal protein S6 (pSer236)-antibody from Invitrogen [#44921G] and 1 nM LANCE EU-W1024 labeled ProteinG [Perkin-Elmer, product no. AD0071]) in an aqueous EDTA-solution (100 mM EDTA, 0.1% (w/v) bovine serum albumin in 50 mM HEPES pH 7.5).
The resulting mixture was incubated for 1 h at 22° C. to allow the formation of complex between the phosphorylated biotinylated peptide and the detection reagents. Subsequently the amount of phosphorylated substrate was evaluated by measurement of the resonance energy transfer from the Eu-chelate to the streptavidine-XL. Therefore, the fluorescence emissions at 620 nm and 665 nm after excitation at 350 nm were measured in a TR-FRET reader, e.g. a Rubystar (BMG Labtechnologies, Offenburg, Germany) or a Viewlux (Perkin-Elmer). The ratio of the emissions at 665 nm and at […] was taken as the measure for the amount of phosphorylated substrate. The data were normalised (enzyme reaction without inhibitor=0% inhibition, all other assay components but no enzyme=100% inhibition).

Sequence of human full-length MKNK1 (Q9BUB5 other isoform, or with tags, fused parts or gaps T344D): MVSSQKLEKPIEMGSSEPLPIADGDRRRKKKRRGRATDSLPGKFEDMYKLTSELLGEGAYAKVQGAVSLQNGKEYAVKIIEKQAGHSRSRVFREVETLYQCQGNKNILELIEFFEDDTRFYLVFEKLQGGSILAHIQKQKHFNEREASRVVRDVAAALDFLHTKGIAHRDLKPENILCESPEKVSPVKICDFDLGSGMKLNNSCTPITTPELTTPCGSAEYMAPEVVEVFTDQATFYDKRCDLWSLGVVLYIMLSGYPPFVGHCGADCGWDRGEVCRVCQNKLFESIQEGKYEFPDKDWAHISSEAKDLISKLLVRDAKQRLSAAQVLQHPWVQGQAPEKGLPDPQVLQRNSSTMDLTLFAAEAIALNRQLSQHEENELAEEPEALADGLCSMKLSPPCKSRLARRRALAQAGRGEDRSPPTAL

SMILES	IC50 [µM]
COCCN(C)C(=O)[C@H]1CCc2c(sc3ncnc(Nc4cc5ccnn5cc4Cl)c23)C1 [Example 56, (7S)-4-[(6-Chloropyrazolo[1,5-a]pyridin-5-yl)amino]-N-(2-methoxyethyl)-N-methyl-5,6,7,8-tetrahydro[1]benzothieno[2,3-d]pyrimidine-7-carboxamide]	0.041
CC(C)N(C)C(=O)[C@H]1CCc2c(sc3ncnc(Nc4cc5ccnn5cc4Cl)c23)C1 [Example 57, (7S)-4-[(6-Chloropyrazolo[1,5-a]pyridin-5-yl)amino]-N-methyl-N-(propan-2-yl)-5,6,7,8-tetrahydro[1]benzothieno[2,3-d]pyrimidine-7-carboxamide]	0.012
CN(C)[C@@H]1CCN(C(=O)[C@H]2CCc3c(sc4ncnc(Nc5cc6ccnn6cc5Cl)c34)C2)C1 [Example 58, (7S)-4-[(6-Chloropyrazolo[1,5-a]pyridin-5-yl)amino]-5,6,7,8-tetrahydro[1]benzothieno[2,3-d]pyrimidin-7-yl[(3R)-3-(dimethylamino)pyrrolidin-1-yl]methanone]	0.002
CN(C)[C@H]1CCN(C(=O)[C@H]2CCc3c(sc4ncnc(Nc5cc6ccnn6cc5Cl)c34)C2)C1 [Example 59, (7S)-4-[(6-Chloropyrazolo[1,5-a]pyridin-5-yl)amino]-5,6,7,8-tetrahydro[1]benzothieno[2,3-d]pyrimidin-7-yl[(3S)-3-(dimethylamino)pyrrolidin-1-yl]methanone]	0.001
O=C([C@H]1CCc2c(sc3ncnc(Nc4cc5ccnn5cc4Cl)c23)C1)N1C[C@H](O)[C@@H](O)C1 [Example 60, (7S)-4-[(6-Chloropyrazolo[1,5-a]pyridin-5-yl)amino]-5,6,7,8-tetrahydro[1]benzothieno[2,3-d]pyrimidin-7-yl[(3S,4S)-3,4-dihydroxypyrrolidin-1-yl]methanone]	0.018
CN(C)C1CCN(C(=O)[C@H]2CCc3c(sc4ncnc(Nc5cc6ccnn6cc5Cl)c34)C2)CC1 [Example 61, (7S)-4-[(6-Chloropyrazolo[1,5-a]pyridin-5-yl)amino]-5,6,7,8-tetrahydro[1]benzothieno[2,3-d]pyrimidin-7-yl[4-(dimethylamino)piperidin-1-yl]methanone]	0.013
CN(C)CCCN(CCO)C(=O)[C@H]1CCc2c(sc3ncnc(Nc4cc5ccnn5cc4Cl)c23)C1 [Example 63, (7S)4-[(6-Chloropyrazolo[1,5-a]pyridin-5-yl)amino]-N-[3-(dimethylamino)propyl]-N-(2-hydroxyethyl)-5,6,7,8-tetrahydro[1]benzothieno[2,3-d]pyrimidine-7-carboxamide]	0.015
C[C@@H]1CN(C(=O)[C@H]2CCc3c(sc4ncnc(Nc5cc6ccnn6cc5Cl)c34)C2)C[C@H](C)O1 [Example 64, (7S)-4-[(6-Chloropyrazolo[1,5-a]pyridin-5-yl)amino]-5,6,7,8-tetrahydro[1]benzothieno[2,3-d]pyrimidin-7-yl[(2R,6S)-2,6-dimethylmorpholin-4-yl]methanone]	0.01
CN(C)CCN1CCN(C(=O)[C@H]2CCc3c(sc4ncnc(Nc5cc6ccnn6cc5Cl)c34)C2)CC1 [Example 66, (7S)-4-[(6-Chloropyrazolo[1,5-a]pyridin-5-yl)amino]-5,6,7,8-tetrahydro[1]benzothieno[2,3-d]pyrimidin-7-yl4-[2-(dimethylamino)ethyl]piperazin-1-ylmethanone]	0.006
CCN(CCN(C)C)C(=O)[C@H]1CCc2c(sc3ncnc(Nc4cc5ccnn5cc4Cl)c23)C1 [Example 67, (7S)-4-[(6-Chloropyrazolo[1,5-a]pyridin-5-yl)amino]-N-[2-(dimethylamino)ethyl]-N-ethyl-3,5,6,7,8-tetrahydro[1]benzothieno[2,3-d]pyrimidine-7-carboxamide]	0.03
O=C([C@H]1CCc2c(sc3ncnc(Nc4cc5ccnn5cc4Cl)c23)C1)N1CCOCC1 [Example 68, (7S)-4-[(6-Chloropyrazolo[1,5-a]pyridin-5-yl)amino]-5,6,7,8-tetrahydro[1]benzothieno[2,3-d]pyrimidin-7-yl(morpholin-4-yl)methanone]	0.004
CCN(CCO)C(=O)[C@H]1CCc2c(sc3ncnc(Nc4cc5ccnn5cc4Cl)c23)C1 [Example 69, (7S)-4-[(6-Chloropyrazolo[1,5-a]pyridin-5-yl)amino]-N-ethyl-N-(2-hydroxyethyl)-5,6,7,8-tetrahydro[1]benzothieno[2,3-d]pyrimidine-7-carboxamide]	0.006
CCN(CCOC)C(=O)[C@H]1CCc2c(sc3ncnc(Nc4cc5ccnn5cc4Cl)c23)C1 [Example 70, (7S)-4-[(6-Chloropyrazolo[1,5-a]pyridin-5-yl)amino]-N-ethyl-N-(2-methoxyethyl)-5,6,7,8-tetrahydro[1]benzothieno[2,3-d]pyrimidine-7-carboxamide]	0.007
COCCN(CCOC)C(=O)[C@H]1CCc2c(sc3ncnc(Nc4cc5ccnn5cc4Cl)c23)C1 [Example 71, (7S)-4-[(6-Chloropyrazolo[1,5-a]pyridin-5-yl)amino]-N,N-bis(2-methoxyethyl)-5,6,7,8-tetrahydro[1]benzothieno[2,3-d]pyrimidine-7-carboxamide]	0.012
CN1C[C@@H]2C[C@H]1CN2C(=O)[C@H]1CCc2c(sc3ncnc(Nc4cc5ccnn5cc4Cl)c23)C1 [Example 72, (7S)-4-[(6-Chloropyrazolo[1,5-a]pyridin-5-yl)amino]-5,6,7,8-tetrahydro[1]benzothieno[2,3-d]pyrimidin-7-yl[(1S,4S)-5-methyl-2,5-diazabicyclo[2.2.1]hept-2-yl]methanone]	0.014
CN1C[C@H]2C[C@@H]1CN2C(=O)[C@H]1CCc2c(sc3ncnc(Nc4cc5ccnn5cc4Cl)c23)C1 [Example 73, (7S)-4-[(6-Chloropyrazolo[1,5-a]pyridin-5-yl)amino]-5,6,7,8-tetrahydro[1]benzothieno[2,3-d]pyrimidin-7-yl[(1R,4R)-5-methyl-2,5-diazabicyclo[2.2.1]hept-2-yl]methanone]	0.004
O=C([C@H]1CCc2c(sc3ncnc(Nc4cc5ccnn5cc4Cl)c23)C1)N1C[C@@H]2C[C@H]1CO2 [Example 74, (7S)-4-[(6-Chloropyrazolo[1,5-a]pyridin-5-yl)amino]-5,6,7,8-tetrahydro[1]benzothieno[2,3-d]pyrimidin-7-yl[(1S,4S)-2-oxa-5-azabicyclo[2.2.1]hept-5-yl]methanone]	0.022
O=C([C@H]1CCc2c(sc3ncnc(Nc4cc5ccnn5cc4Cl)c23)C1)N1C[C@H]2C[C@@H]1CO2 [Example 75, (7S)-4-[(6-Chloropyrazolo[1,5-a]pyridin-5-yl)amino]-5,6,7,8-tetrahydro[1]benzothieno[2,3-d]pyrimidin-7-yl[(1R,4R)-2-oxa-5-azabicyclo[2.2.1]hept-5-yl]methanone]	0.056
C[C@H]1COCCN1C(=O)[C@H]1CCc2c(sc3ncnc(Nc4cc5ccnn5cc4Cl)c23)C1 [Example 76, (7S)-4-[(6-Chloropyrazolo[1,5-a]pyridin-5-yl)amino]-5,6,7,8-tetrahydro[1]benzothieno[2,3-d]pyrimidin-7-yl[(3S)-3-methylmorpholin-4-yl]methanone]	0.007
C[C@@H]1COCCN1C(=O)[C@H]1CCc2c(sc3ncnc(Nc4cc5ccnn5cc4Cl)c23)C1 [Example 77, (7S)-4-[(6-Chloropyrazolo[1,5-a]pyridin-5-yl)amino]-5,6,7,8-tetrahydro[1]benzothieno[2,3-d]pyrimidin-7-yl[(3R)-3-methylmorpholin-4-yl]methanone]	0.021
CNC(=O)[C@H]1CCc2c(sc3ncnc(Nc4cc5ccnn5cc4OC)c23)C1 [Example 78, (7S)-4-[(6-Methoxypyrazolo[1,5-a]pyridin-5-yl)amino]-N-methyl-5,6,7,8-tetrahydro[1]benzothieno[2,3-d]pyrimidine-7-carboxamide]	0.005
COc1cn2nccc2cc1Nc1ncnc2sc3c(c12)CC[C@H](C(=O)NCC(F)F)C3 [Example 79, (7S)—N-(2,2-Difluoroethyl)-4-[(6-methoxypyrazolo[1,5-a]pyridin-5-yl)amino]-5,6,7,8-tetrahydro[1]benzothieno[2,3-d]pyrimidine-7-carboxamide]	0.003
